Assay results as given in article PMC7409302 (Cancers, 2020).

Target: T1, androgen receptor (AR) (Homo sapiens, UniProt P10275, T878A)
T1 construct: endogenous full-length AR in LNCaP cells
T1 sequence (P10275 1-920 T878A): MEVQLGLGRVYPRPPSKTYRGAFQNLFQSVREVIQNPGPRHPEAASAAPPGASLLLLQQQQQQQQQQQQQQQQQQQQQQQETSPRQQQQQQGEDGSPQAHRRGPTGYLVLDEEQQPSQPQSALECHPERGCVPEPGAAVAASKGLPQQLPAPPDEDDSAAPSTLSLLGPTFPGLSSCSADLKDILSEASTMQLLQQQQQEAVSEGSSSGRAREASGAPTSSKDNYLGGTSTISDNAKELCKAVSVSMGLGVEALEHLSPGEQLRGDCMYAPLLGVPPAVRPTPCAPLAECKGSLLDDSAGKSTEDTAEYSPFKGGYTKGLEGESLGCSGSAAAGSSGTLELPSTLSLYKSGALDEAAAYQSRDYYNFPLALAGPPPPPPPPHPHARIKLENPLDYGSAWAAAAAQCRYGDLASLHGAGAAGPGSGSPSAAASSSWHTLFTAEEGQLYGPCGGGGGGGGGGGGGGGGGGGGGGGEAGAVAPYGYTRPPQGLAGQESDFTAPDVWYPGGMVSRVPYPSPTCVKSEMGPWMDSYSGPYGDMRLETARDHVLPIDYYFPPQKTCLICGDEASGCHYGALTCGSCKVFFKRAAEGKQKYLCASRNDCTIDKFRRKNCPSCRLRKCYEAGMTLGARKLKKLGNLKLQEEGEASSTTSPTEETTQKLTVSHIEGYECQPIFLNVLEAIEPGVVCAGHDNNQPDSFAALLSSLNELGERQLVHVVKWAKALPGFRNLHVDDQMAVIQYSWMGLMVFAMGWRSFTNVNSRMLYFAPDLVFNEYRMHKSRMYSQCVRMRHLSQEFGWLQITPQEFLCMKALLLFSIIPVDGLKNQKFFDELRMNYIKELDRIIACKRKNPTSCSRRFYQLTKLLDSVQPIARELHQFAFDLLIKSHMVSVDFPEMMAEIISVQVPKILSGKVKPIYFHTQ
Experiment: androgen (R1881)-induced PSA([…].1kb)-luciferase reporter in LNCaP cells
Format: cell-based

IC50: 1080 ± 550 nM
SMILES: CC(C)(c1ccc(OC[C@H](O)CNS(C)(=O)=O)cc1)c1cc(Cl)c(OC[C@H](O)CCl)c(Cl)c1 [EPI-7170]
